According to ChEMBL document CHEMBL3507680, “University of Dundee, Gates Library screen for HepG2 cell viability”:

Assay: Human HepG2 cell viability assay in 384 well format
Assay type: toxicity, cell-based
Parameters: dose 125 nL, time 70.5 hour; concentration not given beside the values
Settings: HepG2 cells, read-out: Inhibition

| Compound | cytotoxicity at 70.5 h |
| --- | --- |
| COCCN1CC(C(=O)N(CCN(C)C)Cc2ccc(C)s2)CC1=O (centres undefined) | -4.05% |
| Cc1ccccc1CN(Cc1ccccn1)C(=O)CN(C)C(C)C | 2.63% |
| CCCC1c2cccn2CCN1C(=O)Cn1cnc2sc(C)cc2c1=O (centres undefined) | -12.3% |
| CCc1noc(C(C)N2CCC(C(=O)Nc3cnn(CC)c3)CC2)n1 (centres undefined) | 41.4% |
| CN(Cc1ccco1)[C@@H]1CN(Cc2cnn(C)c2)[C@@H]2CCCO[C@H]12 | -12% |
| COc1ccccc1N1CCC(N2CCOCC(CO)C2)CC1 (centres undefined) | -6.73% |
| Cc1ccc2c(c1)CCCN2C(=O)c1cncc(Br)c1 | 20.3% |
| CCN(Cc1noc(C2CCC2)n1)C(=O)c1cn2ccsc2n1 | 14.6% |
| NC(=O)c1cccc(OCC(=O)N2CCCC(n3ccnc3)C2)c1 (centres undefined) | -11.1% |
| CCOC(C)c1noc(CN(C)C(=O)c2cc3ccccn3c2)n1 (centres undefined) | -3.99% |
| c1ccc(Cc2noc(CN3CCc4cncnc4C3)n2)cc1 | -9.62% |
| Nc1ccnc(N2CCC(Cc3ccccc3Cl)(C(=O)O)CC2)n1 | 1.15% |
| O=C(O)[C@@H]1CCCN1c1nccc(Nc2ccccc2)n1 | 16% |
| CN(Cc1cccs1)C(=O)c1ccc(N2CCOCC2)c(F)c1 | 12.4% |
| CCOc1cc(C(=O)n2cc(C)cn2)cc(OCC)c1OCC | 1.34% |
| CSc1cccc(NC(=O)N2CCCC(CNC(=O)c3ccco3)C2)c1 (centres undefined) | -8.32% |
| CC(NC(=O)N1CCC(OCc2ccccc2)CC1)c1nncn1C (centres undefined) | -11.3% |
| Cc1nnc(N2CCCC3(CN(c4cccc(F)c4)CCO3)C2)o1 (centres undefined) | 1.49% |
| N#Cc1c(N)nc2c(c1-c1cnc(N3CCCC3)nc1)COCC2 | -5.19% |
| CC(C)N(CC(N)=O)Cc1csc(-c2ncccn2)n1 | -2.81% |
| Cc1ccccc1-c1noc(CN2CCc3nn(C)c(=O)cc3C2)n1 | -11.6% |
| NCc1ccc(Oc2cccc(Cl)c2Cl)nc1 | 6.23% |
| CSCCC(C)(O)CNC(=O)Nc1ccccc1C (centres undefined) | -6.41% |

| Compound | cytotoxicity at 70.5 h |
| --- | --- |
| N#Cc1ccc(N2CCCN(C(=O)CC3CCCO3)CC2)cc1 (centres undefined) | -15.2% |
| CN(C)C(=O)NC[C@@H]1OC[C@H]2CN(Cc3cccc(F)c3)CC[C@H]21 | -6.1% |
| O=C(c1cccs1)N1CC(Oc2ccccc2Cl)C1 | -0.814% |
| O=C(c1nnn(-c2ccc(C(F)(F)F)cc2)n1)N1CCC(O)CC1 | -2.52% |
| O=C(c1ccsc1)N1CC(c2nc(-c3ccc[nH]c3=O)no2)C1 | 12.8% |
| CCC1=N[C@@]2(CC[C@@H]3CN(CC4CC4)C[C@@H]32)C(=O)N1C | -14.1% |
| O=C(NC[C@@H]1CCCO1)c1ccc(S(=O)(=O)N[C@@H]2CCNC2)cc1 | 6% |
| Cc1cc(CN2CC3(CCN(C(=O)C4CC4)CC3)CC2C(=O)O)oc1C (centres undefined) | -7.26% |
| Cc1c(CN(C)C(=O)c2ccnn2C)cnn1C | 6.18% |
| Cc1ccccc1-n1cc(CNC(=O)CC2C(=O)NCCN2C)cn1 (centres undefined) | -1.91% |
| CC(C)c1noc(OCC(=O)N(C)C(C)C)n1 | -12.3% |
| COc1cccc2c1OCCCN(Cc1ncccc1C(=O)O)C2 | -3.58% |
| O=C(C1CCCN(Cc2cccnc2)C1)N1CCc2sccc2C1 (centres undefined) | -5.24% |
| Cc1ccnc(OC[C@]23COC[C@H]2CN(C(=O)Cc2ccsc2)C3)n1 | -7.56% |
| CC(C)(CO)CNC(=O)c1ccnn1-c1ccc2ccccn12 | -2.1% |
| CCCS(=O)(=O)c1ncc(CN2CCC(C)CC2)n1CC1CCCO1 (centres undefined) | -2.16% |
| NC(=O)CN1CCCN(C(=O)c2ccn(-c3ccc(F)cc3)n2)CC1 | 6.29% |
| CCN1CCC2(C=C(C(=O)N(C)C)c3ccccc32)CC1 | 0.372% |
| O=C(CCN1CCCCO1)N1CC[C@H](O)[C@@H](O)C1 | 11.6% |
| Cc1cnn(CCNCC(=O)Nc2ccc(Cl)cn2)c1 | -0.0591% |
| O=C(c1cccnc1SCc1ccccc1)N1CCOCC1 | 0.0391% |
| OCC1(Cc2cccc(Cl)c2)CCCN(c2ncccn2)C1 (centres undefined) | 28.5% |
| CN(Cc1nc(-c2ccco2)no1)C1CCCN(c2cccnn2)C1 (centres undefined) | -14.4% |

| Compound | cytotoxicity at 70.5 h |
| --- | --- |
| CCOC(C)C(=O)Nc1ccnn1-c1ccccc1C (centres undefined) | 7.99% |
| CC(=O)Nc1ccc(CNCC(O)c2ccccc2)cc1 (centres undefined) | -2.04% |
| Cc1nnc(N2CCC(CN(C)C(C)C)CC2)c(C#N)c1C | 20.7% |
| COC(=O)Cn1c(C)cc(=O)c2cc(F)ccc21 | -4.13% |
| COCCN(CC1CCCO1)C(=O)CCNC(=O)c1ccccc1F (centres undefined) | -13.6% |
| COCCCNS(=O)(=O)c1ccc2c(c1)NC(=O)C(C)O2 (centres undefined) | 1.94% |
| CCOCC(O)CN1CCN(C(=O)c2cc(F)ccc2C)CC1 (centres undefined) | -18.9% |
| COCC1N(C(=O)c2ccc3c(c2)OCCCO3)[C@H]2CC[C@]1(O)CC2 (some centres undefined) | -6.94% |
| Cc1ccc2nc(C(=O)N(C)[C@@H]3CC[C@@H](N4CCCC4)[C@@H]3O)cn2c1 | -3.38% |
| CSCCC1c2nc[nH]c2CCN1Cc1ccccc1C(F)(F)F (centres undefined) | 0.321% |
| Cc1ccccc1C1(C(=O)NCCN2CCCCC2C)CCOCC1 (centres undefined) | -6.68% |
| Clc1ccc2[nH]c3c(c2c1)CCCC3c1nn[nH]n1 (centres undefined) | -6.09% |
| O=C(CNc1cc(-c2ccccc2)nc2ccnn12)NC1CC1 | -0.964% |
| O=C1CC(N(C(=O)COc2ccc(F)cc2F)C2CC2)C(=O)N1 (centres undefined) | -6.63% |
| O=C(C1CCOCC1)N1CCC(O)(Cn2ccc3ccncc32)CC1 | -6.06% |
| CC(=O)N1CCC(CCc2ccnc(NC(=O)c3ccccn3)c2)CC1 | 12% |
| CC(C)(C)n1cc(C2=CCN(CCc3ccccc3)CC2)cn1 | -3.25% |
| CC(O)CN(c1ccccc1)S(=O)(=O)c1cc(C(=O)O)cc2c1CCC2 (centres undefined) | -7.68% |
| CCn1cc(Cn2cc(-c3cccc(C(C)N(C)C)c3)nn2)cn1 (centres undefined) | -6.09% |
| COc1c(Br)cc(Cl)cc1NCc1c(C)noc1C | 11.5% |
| COCc1nc(C(=O)NS(=O)(=O)c2c(C)c(C)cc(C)c2C)cs1 | 2.47% |
| O=C(c1ccc(S(=O)(=O)NCc2ccon2)cc1)N1CCNCC1 | -6.36% |
| CC(Cn1cccn1)NC(=O)NCc1cccnc1OC1CCCC1 (centres undefined) | -12.8% |

| Compound | cytotoxicity at 70.5 h |
| --- | --- |
| Cc1cccc(NC(=O)Cn2nc3ccccn3c2=O)c1C | -10.3% |
| O=C(C1COCCO1)N1CCN(Cc2ccc3c(c2)CCO3)CC1 (centres undefined) | 1.06% |
| CC(C)CN1CCCC2(CCN(C(=O)c3cnccn3)C2)C1 (centres undefined) | -14.6% |
| Cn1cc(N2C(=O)C[C@@H]3[C@@H]2CCN3C(=O)c2ccco2)cn1 | -6.04% |
| Cc1cc(CNC(=O)CCCN2CCCCC2)n(C)n1 | 12.2% |
| O=C1N(CCO)CCCC12CCN(Cc1nnc(C3CC3)o1)C2 (centres undefined) | 0.803% |
| O=c1[nH]c(NCCO)nc2c1C1(CCCC1)Cc1ccccc1-2 | 18.4% |
| COc1cccc(CN2C[C@@H]3COC[C@]3(CN3CCOCC3)C2)c1 | 6.49% |
| NC(=O)CSCC(=O)NCC1CCCC1 | -10.8% |
| CN(Cc1cncnc1)[C@H]1CN(CC2CC2)[C@@H]2CCCO[C@@H]21 | -5.03% |
| COC(=O)c1ccc(N2CCN(C(=O)c3cc(C)on3)C(C)C2)cc1 (centres undefined) | -15.3% |
| CC1c2ncc(COCC3CCCC3)n2CCN1S(=O)(=O)N(C)C (centres undefined) | 0.773% |
| COc1ccc(F)cc1Cn1nc(C(N)=O)ccc1=O | 6.09% |
| O=S(=O)(Cc1nc(C2CC2)no1)c1cc(F)ccc1F | -12.2% |
| O=C(c1csc(-c2ccco2)n1)N1CCOc2ncccc21 | 0.101% |
| CCc1nc(CN2CCCN(Cc3nnc(C4CC4)o3)CC2)no1 | -5.98% |
| Cc1ccc(CNC(=O)CN2C=Nc3ccccc3S2(=O)=O)s1 | -11.3% |
| CC(C)NC(=O)[C@@H]1C[C@H]2NCC[C@H]2O1 | -7.3% |
| Cc1ccc(S(=O)(=O)N2CCC(O)(CN(C)C)C2)cc1 (centres undefined) | -4.32% |
| CCc1nc(NCCCn2cccn2)c2c(n1)c(C)nn2C | -1.69% |
| O=c1[nH]c(CCN2CCCC(Cn3cncn3)C2)nc2ccccc12 (centres undefined) | -0.545% |
| Fc1ccc(CCN2CCC(c3nnc(-c4cccnc4)o3)CC2)cc1 | 16.7% |
| Cc1cc(C(=O)NCCN2CCCC(C)C2)nn1C (centres undefined) | -5.9% |

| Compound | cytotoxicity at 70.5 h |
| --- | --- |
| CCn1cc2c(n1)C(COC)CN(c1ccc(C)nn1)C2 (centres undefined) | -7.13% |
| COc1cccc(C(=O)N2C[C@@H](CN(C)CCO)[C@@H](CO)C2)c1C | 23.8% |
| CCn1nc(C)cc1C(=O)NCc1cc(N(C)C)nc2ccccc12 | 9.21% |
| O=C(NCCn1cnnc1C1CC1)c1c(O)cc(F)cc1F | -11.9% |
| COc1ccccc1C1Cn2c(C)cnc2CN1Cc1ccc(C)nc1 (centres undefined) | 22.5% |
| CC(C)=CCN1C[C@H]2CC[C@@H]1CN(C(=O)c1c[nH]c(=O)c(Cl)c1)C2 | -1.3% |
| O=C(NCc1ccccc1CN1CCCC1=O)Nc1nncs1 | -7.24% |
| CCn1cnnc1CNC(=O)N1CCC(C(=O)NC)CC1 | 1.9% |
| COCCc1noc(CNC2CCCC(C)(C)C2)n1 (centres undefined) | -4.63% |
| O=C(NCCCN1CCC(OC2CCCCC2)CC1)C1CCCC1 | -0.377% |
| NC(=O)C1CNCCN1C(=O)COc1ccccc1 (centres undefined) | -7.46% |
| CC(C)c1cc(NC(=O)CN2CCc3c(nc(C(C)C)n3C)C2)on1 | -15% |
| Cc1ccc(CN[C@@H]2COC[C@H]2c2ccc(F)cc2)cc1C | 3.52% |
| CC(CCc1ccccc1)N1CCC(C(=O)Nc2ccccn2)CC1 (centres undefined) | 22% |
| CN(CC1CN(Cc2cn3ccsc3n2)CCO1)c1cccnn1 (centres undefined) | -2.29% |
| Cc1cc(N(C)C)nc(C2COCCN2Cc2cscn2)n1 (centres undefined) | 18% |
| CC(=O)N1C[C@@H]2CN(Cc3cccnc3)CCO[C@@H]2C1 | -11.3% |
| CC(C)Oc1ccc(CNC(=O)CC(F)(F)F)cc1F | -18% |
| CC(Cn1cncn1)NCc1nncn1C1CCCCC1 (centres undefined) | -1.66% |
| O=C(c1c(F)cccc1Br)N1CCCOCC1 | 3.06% |
| O[C@H]1CCN(Cc2ccoc2)[C@H]1Cc1cccnc1 | 30.5% |
| COc1ccc(C(O)C(=O)N2CCC(c3nccn3C(C)C)CC2)cc1 (centres undefined) | 28.1% |
